One test has as its target protein phosphatase-1. Details: method as in PMID 22260360. As to conditions: cited from earlier work.
The subject of test [1] is PP2A. Further details: method as in PMID 22260360. To be noted: cited from earlier work.
In another test the target is T1, PRL-3 (Homo sapiens, UniProt O75365).
T1 construct: His-TEV (cleaved yes); made in house
Put plainly: DiFMUP phosphatase activity assay for PRLs. It counts as biochemical. To be noted: for IC50: 50 nM PRL-3, 30 min preincubation, 25°C, 21 μM DiFMUP, mean ± SEM (n = 3–5), read-out: IC50 (Ki) PRL-3. As to the method: Biochemical phosphatase activity measurements were carried out in the presence of different concentrations of various polyphenols, compounds 1–11 (Fig 1), using recombinant PRL-3 and 6,8-difluoro-4-methylumbelliferyl phosphate (DiFMUP) as a fluorogenic substrate (see the experimental procedures). We observed that the monomeric epicatechins EGC and EC inhibit PRL-3 only weakly, with a slightly better activity of EGC, which bears three hydroxyl groups at the B-ring. […] In general, as a basic structure activity-relationship the following trend was observed: a higher number of hydroxyl groups at the B-ring increased the activity slightly. […] The influence of the stereochemistry at C(2)–C(3) was studied by using GCG (the trans-epimer of EGCG).
(§1) Fig 2 Effect of polyphenolic compounds 8 (A), 9 (B), 10 (C) and 11 (D) on the phosphatase activity of PRL-1, PRL-2, PRL-3, PP1, and PP2A. Proteins were incubated for 30 min with 0–1000 μM of the corresponding procyandin 8–11. Phosphatase activity was measured in the presence of DiFMUP at 25°C using the concentration corresponding to the KM of each protein. The KM for PRLs was determined separately (PRL-3 = 21 μM, PRL-2 and PRL-1 = 24 μM). The KM for PP1 (91 μM) and for PP2A (100 μM) was taken from the literature. Protein concentrations are 50 nM for all PRLs and 2 mU for PP1 and 0.05 U for PP2A (see the Experimental Procedures). Phosphatase activity in the absence of inhibitors was set as 100%. Data represent means ± standard errors of the mean (n = 3–5).
(§2) DiFMUP assay for PRLs: In a final reaction volume of 100 μL the PRLs (50 nM final concentration) were incubated with decreasing concentrations of the inhibitory polyphenols for 30 minutes at 25°C. The buffer conditions were 108 mM TrisCl (pH 7.5), Triton 0.05% (v/v), DTT 27.0 mM, NaCl 811 mM. After the incubation time 20 μL DiFMUP (6,8-Difluoro-4-methylumbelliferyl phosphate) was added to reach a final concentration of 21 μM for PRL-3 and 24 μM for PRL-1 and PRL-2. On a Tecan safire2 (Tecan, Salzburg, Austria) plate reader dephosphorylation of the substrate to its fluorescent product was monitored by following the emission at 358 nm with excitation at 452 nm for 20 minutes. All measurements were done in triplicates, and the experiments were repeated at least three times. The slopes of the initial phases were obtained by linear regression of the data points. The normalized reaction rates were plotted versus the log of the inhibitor concentrations and the IC50 values were obtained by fitting the curves using the one site competition model of GraphPad Prism (GraphPad Software, Version 5). KM values were determined by measuring reaction kinetics of substrate dilution series. Initial velocities were plotted against DiFMUP concentration and the data was analyzed by Michaelis-Menten kinetics curve fitting of GraphPad Prism. A final DMSO content of 0.4% was maintained for the monomeric catechins. Due to the high water solubility of the procyanidins DMSO was not required and measurements were done in assay buffer only.

The target in another test is T2, PP1 (Oryctolagus cuniculus, UniProt P62139).
T2 construct: purchased NewEngland Biolabs; host or cells: E. coli
T2 sequence (P62139 whole entry): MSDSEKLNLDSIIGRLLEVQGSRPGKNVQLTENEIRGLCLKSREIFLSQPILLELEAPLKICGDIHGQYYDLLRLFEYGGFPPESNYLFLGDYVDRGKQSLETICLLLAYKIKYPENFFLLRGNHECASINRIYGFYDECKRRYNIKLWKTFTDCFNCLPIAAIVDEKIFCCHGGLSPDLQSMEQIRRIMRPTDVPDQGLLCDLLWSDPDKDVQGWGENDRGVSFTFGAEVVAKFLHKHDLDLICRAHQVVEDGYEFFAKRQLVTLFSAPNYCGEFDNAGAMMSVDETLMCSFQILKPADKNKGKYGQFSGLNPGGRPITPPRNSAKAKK
Kind of test: DiFMUP assay for PP1. It is filed as biochemical. The protocol: as §1
(§3) BSA, which is usually supplemented to the assay buffer for stabilizing the PPs was however excluded, as BSA is known to form complexes with polyphenolic compounds [40–42] and thus would decrease the concentrations of the inhibitor in the assay. […] In contrast, the phosphatase activity of PP2A was suppressed to a much lesser extent with weak (for trimer 9 and hexamer 11) and strong statistical significance (dimer 8 and tetramer 10). Thus our results corroborate the data reported previously.
DiFMUP assay for PP1: In a final reaction volume of 100 μL PP1c (2 mU final concentration, according to manufacturer’s instructions) were incubated with decreasing concentrations of the inhibitory polyphenols for 30 minutes at 25°C. The assay buffer contained 25 mM imidazole (pH 7.4), 1 mM dithiothreitol (DTT), and 50 mM NaCl. Bovine serum albumin (BSA) was excluded due to possible binding of the polyphenolic compounds. After the incubation time 20 μL DiFMUP (6,8-Difluoro-4-methylumbelliferyl phosphate) was added to reach a final concentration of 100 μM. Monitoring of the fluorescent dephosphorylation product was monitored and data analyzed as described above.

The next test concerns the target T3, PRL-2 (Homo sapiens, UniProt Q12974).
T3 construct: His-TEV (cleaved yes); made in house
T3 sequence (Q12974 1-167): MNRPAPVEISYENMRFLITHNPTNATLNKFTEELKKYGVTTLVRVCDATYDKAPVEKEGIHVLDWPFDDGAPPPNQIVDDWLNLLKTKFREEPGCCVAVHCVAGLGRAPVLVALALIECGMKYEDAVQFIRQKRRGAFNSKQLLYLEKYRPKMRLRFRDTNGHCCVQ
Kind of test: DiFMUP phosphatase activity assay for PRLs. It is filed as biochemical. To be noted: 50 nM PRL-2, 30 min preincubation, 25°C, 24 μM DiFMUP; mean ± SEM (n = 3–5); read-out: IC50 (Ki) PRL-2. As to the method: as §1, §2

Test [2] deals with T4, PRL-1 (Homo sapiens, UniProt Q93096).
T4 construct: His-TEV (cleaved yes); made in house
T4 sequence (Q93096 1-173): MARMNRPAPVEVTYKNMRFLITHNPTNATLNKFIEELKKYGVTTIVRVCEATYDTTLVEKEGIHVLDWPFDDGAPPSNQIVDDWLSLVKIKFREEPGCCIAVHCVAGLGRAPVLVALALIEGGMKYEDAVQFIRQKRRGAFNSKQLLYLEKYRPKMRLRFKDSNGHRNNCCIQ
Kind of test: DiFMUP phosphatase activity assay for PRLs. To be noted: 50 nM PRL-1, 30 min preincubation, 25°C, 24 μM DiFMUP; mean ± SEM (n = 3–5); read-out: IC50 (Ki) PRL-1. It counts as biochemical. The protocol:
as §1, §2

Test [3] concerns the target T5, PP2A (Homo sapiens, UniProt P67775).
T5 construct: purified from human red blood cells; purchased Merck Millipore; host or cells: human red blood cells
Put plainly: DiFMUP assay for PP2A. It counts as biochemical. As to conditions: 0.05 U PP2A, 30 min preincubation, 25°C, no BSA, mean ± SEM (n = 3–5), read-out: IC50 (Ki) PP2A. As to the method:
as §1, §3
Chemicals and vendors were as follows: Synthesis of Procyanidins (dimer to dodecamer) was done as previously reported. EGCG, EGC, ECG and EC were synthesized as previously reported or purchased from Sigma. (+)-Catechin and 3-(4,5-dimethylthiazol-2-yl)-2,5-diphenyltetrazolium bromide (MTT) were obtained from Sigma. 6,8-Difluoro-4-Methylumbelliferyl Phosphate (DiFMUP), propidium iodide and calcein AM were from lifescience technologies. Cell dissociation solution (10X) was purchased from amsbio. PP1c (recombinant from E. coli) was purchased from NewEngland Biolabs and PP2A (purified from human red blood cells, contains different subunits according to manufacturer) from Merck Millipore. Transwell plates (BRANDplates) and insert stripes for the migration assay were purchased from Brand GmbH. Black 96 well plates (96F Nunclon Delta) were purchased from Thermo Scientific. Transparent 96 well assay plates with UV transparent bottom were purchased from Corning Inc. Wound healing experiments were carried out with μ-dish 35 mm culture inserts, which were purchased from Ibidi.
DiFMUP assay for PP2A: In a final reaction volume of 100 μL PP2A (0.05 U final concentration, according to manufacturer’s instructions) were incubated with decreasing concentrations of the inhibitory polyphenols for 30 minutes at 25°C. The assay buffer contained 50 mM TrisCl (pH 7.5), 250 mM NaCl, 0.1 mM EDTA, 1 mM MnCl2, and 2 mM dithiothreitol (DTT). […] Monitoring of the fluorescent dephosphorylation product was monitored and data analyzed as described above.

Test [4] concerns the target T4, PRL-1. Kind of test: DiFMUP phosphatase activity assay for PRLs. It counts as biochemical. As to conditions: Michaelis-Menten and Lineweaver-Burk analysis, DiFMUP hydrolysis.
The mark [5] stands for this setting: Michaelis-Menten and Lineweaver-Burk analysis, DiFMUP hydrolysis.

Each structure is given as a SMILES string.

The values below come from publication PMC4520450, “Procyanidins Negatively Affect the Activity of the Phosphatases of Regenerating Liver” (PLoS ONE, 2015).

One may read the IC50 as the concentration at which inhibition is half-maximal.

T1 sequence (O75365 whole entry): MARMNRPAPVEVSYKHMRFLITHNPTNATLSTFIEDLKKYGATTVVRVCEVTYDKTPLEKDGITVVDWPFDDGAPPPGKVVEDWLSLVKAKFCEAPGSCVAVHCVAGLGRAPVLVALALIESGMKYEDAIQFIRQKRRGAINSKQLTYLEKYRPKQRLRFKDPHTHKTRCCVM
T5 sequence (P67775 whole entry): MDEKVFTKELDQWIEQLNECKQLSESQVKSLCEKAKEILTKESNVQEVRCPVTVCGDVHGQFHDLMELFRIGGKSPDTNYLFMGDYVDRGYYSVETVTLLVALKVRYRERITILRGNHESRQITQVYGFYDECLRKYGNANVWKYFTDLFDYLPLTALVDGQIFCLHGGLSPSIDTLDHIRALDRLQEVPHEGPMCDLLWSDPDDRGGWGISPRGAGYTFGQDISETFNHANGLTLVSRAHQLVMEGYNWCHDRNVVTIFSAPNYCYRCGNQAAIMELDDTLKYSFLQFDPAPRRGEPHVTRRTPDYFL
T5 sequence (P30153 2-589 partner limits assumed): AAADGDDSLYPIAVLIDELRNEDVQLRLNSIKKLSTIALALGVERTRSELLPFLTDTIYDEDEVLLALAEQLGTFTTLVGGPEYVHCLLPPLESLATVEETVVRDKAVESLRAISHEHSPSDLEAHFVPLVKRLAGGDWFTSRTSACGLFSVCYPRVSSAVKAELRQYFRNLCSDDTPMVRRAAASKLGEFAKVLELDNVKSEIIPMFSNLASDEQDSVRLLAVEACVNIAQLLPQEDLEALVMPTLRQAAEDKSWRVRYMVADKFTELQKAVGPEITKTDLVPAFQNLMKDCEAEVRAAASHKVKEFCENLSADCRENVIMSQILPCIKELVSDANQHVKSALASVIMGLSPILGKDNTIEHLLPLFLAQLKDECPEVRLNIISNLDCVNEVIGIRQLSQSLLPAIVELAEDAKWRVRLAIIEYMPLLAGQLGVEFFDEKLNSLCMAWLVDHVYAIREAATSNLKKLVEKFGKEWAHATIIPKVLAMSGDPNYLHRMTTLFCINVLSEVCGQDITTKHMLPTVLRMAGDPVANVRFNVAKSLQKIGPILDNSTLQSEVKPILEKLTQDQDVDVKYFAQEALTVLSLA

As to `O=C(O[C@@H]1Cc2c(O)cc(O)cc2O[C@@H]1c1cc(O)c(O)c(O)c1)c1cc(O)c(O)c(O)c1` [EGCG (4)], the IC50 at protein phosphatase-1 is 1.35 µM. Also, the “activity toward PP2A relative to PP1” value in the test with PP2A [1] is “ten-fold lower activity”. Moreover, at PRL-3, the “increase in PRL-3 inhibition of 3-gallate ester compared to non-gallate (2 vs 1, 4 vs 3)” value is reported as “about two-fold increase” and the IC50 stood at 121 ± 5.7 µM.
With `Oc1cc(O)c2c(c1)O[C@H](c1ccc(O)c(O)c1)[C@@H](O)[C@@H]2c1c(O)cc(O)c2c1O[C@H](c1ccc(O)c(O)c1)[C@@H](O)[C@@H]2c1c(O)cc(O)c2c1O[C@H](c1ccc(O)c(O)c1)[C@@H](O)[C@@H]2c1c(O)cc(O)c2c1O[C@H](c1ccc(O)c(O)c1)[C@@H](O)C2` [Tetramer (10)], the IC50 at PP1 (2 mU PP1c, 30 min preincubation, 25°C, DiFMUP, no BSA, mean ± SEM (n = 3–5), read-out: IC50 (Ki) PP1) amounted to 13.8 ± 2.9 µM; on PRL-2, 13.4 ± 2.5 µM; at PRL-1 [2], 2.2 ± 1.1 µM; at PP2A [3], 77.9 ± 10.7 µM; at PRL-3, 16.3 ± 2.3 µM. The “type of inhibition, PP1” value on PP1 (setting [5]) was “noncompetitive”. At PRL-3 (setting [5]), the “type of inhibition, PRL-3” value was “noncompetitive”. The “type of inhibition, PRL-1” value on PRL-1 [4] was “noncompetitive”.
